According to paper PMC9282638, “A Suite of Activity-Based Probes To Dissect the KLK Activome in Drug-Resistant Prostate Cancer” (Journal of the American Chemical Society, 2021):

Columns and labels:
LNCaP-K14 cells = assay: Transwell cell migration assay; assay type: cell-based, human; conditions: 1 μM ABP, 24 h; KLK14 expression induced with Dox, 10 nM DHT
Procedure: Figure 6 Dissecting the KLK activome in LNCaP cells. (A) Structures of fluorescent ABPs 42, 20, and 43 for KLK2, KLK3, and KLK14, respectively. (B) KLK activity profiling by in-gel fluorescence of conditioned media obtained from LNCaP-WT, LNCaP-mK14, and LNCaP-K14 cells following treatment with DHT (10 nM), Dox (100 ng/mL), and the appropriate biotinylated ABP using fluorescent ABPs 20, 42 and 43. See Figure S26 for blot and gel quantification. (C) Assessment of KLK activity inhibition on LNCaP cell migration. LNCaP-K14 cells were cultured in serum-free RPMI media supplemented with 10 nM DHT ± Dox (100 ng/mL) for 24 h. Cells were added to transwell inserts (100 000 cells in 100 μL of serum-free RPMI), and after 4 h the appropriate ABP was added. Cultures were incubated for a further 24 h before the number of migrating cells was quantified. […]
each library member was 50 μM and the total reaction volume was 50 μL. The excitation wavelength was 355 nm, and the emission wavelength was 460 nm. An amount of 1 μL of each HyCoSuL peptide was added into a well in a 96-well plate containing 24 μL of KLK buffer.
Next, 25 μL of the active KLK enzyme was added to each well and substrate hydrolysis was recorded in kinetic mode at RT for at least 10 min. The linear portion of each progress curve was used to calculate relative fluorescence units per second (RFUs-1). […] Specificity was calculated by normalizing RFUs-1 to the highest value, which was set at 100 %. […]
Determination of kcat/KM: The KLK2 substrate and KLK14 substrate were serially diluted in the appropriate KLK assay buffer and 25 μL was added to the wells of a 96-well plate. Next, 25 μL of KLK2 (1.5 nM) or KLK14 (75 pM) was added to each well containing the substrate and the enzyme-substrate reaction was monitored for at least 10 min. The linear portion of each progress curve was used to calculate relative fluorescence units per second (RFUs-1).
KM, kcat, and kcat/KM parameters were determined by nonlinear regression in GraphPad Prism 5 (GraphPad Software). […]

[1] = test system: KLK activome (KLK2, KLK3, KLK14) in LNCaP-K14 cells; assay: Residual KLK activity in conditioned media of bABP-treated LNCaP-K14 cells, read out with fABP cocktail; assay type: cell-based, human; conditions: 1 μM bABP co-incubated with 10 nM DHT and 200 nM Dox for 48 h
Excerpt: The data presented above provide evidence that KLK activity in PCa is regulated by the AR at a level beyond simple changes in expression and raise the possibility that KLK activities may be actionable targets for therapeutic intervention at different disease stages, in particular during PCa metastasis to bone. However, KLKs are predicted to form complex proteolytic networks and it is often not clear which protease(s) should be inhibited for maximum phenotypic response in a particular disease setting. […] To enable dissection of the PCa KLK activome directly in LNCaP cells, we further expanded the KLK probe toolbox by synthesizing KLK2_fABP (42) and KLK14_fABP (43) (Figure 6A and Figure S2), fluorescent ABP (fABP) analogues of KLK2_bABP and KLK14_bABP bearing dyes fluorescing at discrete wavelengths, which retain excellent potency and selectivity for KLK2 and KLK14, respectively (Figure S25). KLK2_fABP and KLK14_fABP were combined with KLK3-selective fABP 21 (KLK3_fABP) in an “fABP cocktail” to a final concentration of 1 μM each and incubated for 20 min with CM obtained from LNCaP-WT, LNCaP-mK14, or LNCaP-K14 cells following 48 h treatment with 10 nM DHT to enable simultaneous multicolor readout of KLK2, KLK3, and KLK14 activity. […] However, upon Dox-induced KLK14 expression in DHT-treated LNCaP-K14 cells a significant increase in the activity of all three KLKs was evident (see Figure 6B and Figure S26 for gel quantification). […] Residual KLK activity in CM was then assessed using the fABP cocktail (Figure 6B).
Figure 6 Dissecting the KLK activome in LNCaP cells. […] (B) KLK activity profiling by in-gel fluorescence of conditioned media obtained from LNCaP-WT, LNCaP-mK14, and LNCaP-K14 cells following treatment with DHT (10 nM), Dox (100 ng/mL), and the appropriate biotinylated ABP using fluorescent ABPs 20, 42 and 43. See Figure S26 for blot and gel quantification. […] Cultures were incubated for a further 24 h before the number of migrating cells was quantified.

SMILES | effect on number of migrating cells (LNCaP-K14 cells) | effect on activity of the other KLKs [1]
CCC(NC(=O)C(CCN)NC(=O)C(Cc1ccc2ccccc2c1)NC(=O)CCCCCNC(=O)CCCCC1SCC2NC(=O)NC21)C(=O)NC(c1ccc(NC(=N)N)cc1)P(=O)(Oc1ccccc1)Oc1ccccc1 (stereo not drawn) [compound 39, 2Nal-Dab-Abu-Arg] | nullified | significant decrease
CCC[C@H](NC(=O)[C@H](CCC(N)=O)NC(=O)[C@H](CC(N)=O)NC(=O)CCCCCNC(=O)CCCC[C@@H]1SC[C@@H]2NC(=O)N[C@@H]21)C(=O)NC(c1ccc(C(N)=O)cc1)P(=O)(Oc1ccccc1)Oc1ccccc1 (stereo partly drawn) [compound 20] | no significant effect | does not affect the activity of other KLKs
CC(C)(C)C(NC(=O)CCCCCNC(=O)CCCCC1SCC2NC(=O)NC21)C(=O)NC(CCN)C(=O)NC(Cc1ccc(O)cc1)C(=O)NC(c1ccc(NC(=N)N)cc1)P(=O)(Oc1ccccc1)Oc1ccccc1 (stereo not drawn) [compound 31, Tle-Dab-Tyr-Arg] | no significant effect | does not affect the activity of other KLKs
